A word on the chromatographic logP: it is lipophilicity estimated from chromatographic retention. A high value points to higher lipophilicity.

These results are taken from patent publication US10745398B2, “2-(het)aryl-substituted fused heterocycle derivatives as pesticides” (Bayer CropScience Aktiengesellschaft, priority 2015, dated 2020).

Molecules are shown by their SMILES.

Data set [1] deals with green peach aphid (Myzus persicae). Description: Myzus persicae - spray test. The class given is in vivo. The settings on record: application rate 500 g/ha, Chinese cabbage leaf discs, after 5-6 days. On the procedure: Solvent: 78 parts by weight of acetone • • 1.5 parts by weight of dimethylformamide
(§1) Emulsifier: alkylaryl polyglycol ether
(§2) To produce a suitable active compound preparation, 1 part by weight of active compound is dissolved with the stated parts by weight of solvent and made up with water containing an emulsifier concentration of 1000 ppm until the desired concentration is attained. To produce further test concentrations, the preparation is diluted with emulsifier-containing water.
Discs of Chinese cabbage leaves (Brassica pekinensis) infested by all stages of the green peach aphid (Myzus persicae) are sprayed with an active compound preparation of the desired concentration.
After 5-6 days, the efficacy in % is determined. 100% means that all the aphids have been killed; 0% means that no aphids have been killed.

In data set [2] the test system is adult cat fleas (Ctenocephalides felis). Description: Ctenocephalides felis - in vitro contact tests with adult cat fleas. The class given is in vivo. The settings on record: application rate 5 μg/cm^2 (500 g/ha), after 48 h. On the procedure:
For the coating of the test tubes, 9 mg of active compound are first dissolved in 1 ml of acetone p.a. and then diluted to the desired concentration with acetone p.a. 250 μl of the solution are distributed homogeneously on the inner walls and the base of a 25 ml test tube by turning and rocking on an orbital shaker (rocking rotation at 30 rpm for 2 h). With 900 ppm active compound solution and internal surface 44.7 cm^2, given homogeneous distribution, an area-based dose of 5 μg/cm^2 is achieved.
After the solvent has evaporated off, the tubes are populated with 5-10 adult cat fleas (Ctenocephalides felis), sealed with a perforated plastic lid and incubated in a horizontal position at room temperature and ambient humidity. After 48 h, efficacy is determined. To this end, the test tubes are stood upright and the fleas are knocked to the base of the tube. Fleas which remain motionless at the base or move in an uncoordinated manner are considered to be dead or moribund.
100% efficacy means that all the fleas were dead or moribund. 0% efficacy means that no fleas were harmed.

Data set [3] deals with unfed adult cat fleas (Ctenocephalides felis). Description: Ctenocephalides felis - oral test. The data set is classed as in vivo. The settings on record: application rate 100 ppm in citrated cattle blood, after 2 days. On the procedure: (§3) Solvent: dimethyl sulphoxide
To produce a suitable active compound preparation, 10 mg of active compound are mixed with 0.5 ml of dimethyl sulphoxide. Dilution with citrated cattle blood gives the desired concentration.
About 20 unfed adult cat fleas (Ctenocephalides felis) are placed into a chamber which is closed at the top and bottom with gauze. A metal cylinder whose bottom end is closed with parafilm is placed onto the chamber. The cylinder contains the blood/active compound preparation, which can be imbibed by the fleas through the parafilm membrane.
After 2 days, the kill in % is determined. 100% means that all of the fleas have been killed; 0% means that none of the fleas have been killed.

The subject of data set [4] is adult houseflies (Musca domestica). Description: Musca domestica test. The class given is in vivo. The settings on record: application rate 100 ppm, after 2 days. On the procedure:
as §3
(§4) To produce a suitable active compound preparation, 10 mg of active compound are mixed with 0.5 ml of dimethyl sulphoxide, and the concentrate is diluted with water to the desired concentration.
Vessels containing a sponge treated with sugar solution and the active compound preparation of the desired concentration are populated with 10 adult houseflies (Musca domestica).
After 2 days, the kill in % is determined. 100% means that all of the flies have been killed; 0% means that none of the flies have been killed.

The subject of data set [5] is greenhouse red spider mite (Tetranychus urticae). Description: Tetranychus urticae - spray test, OP-resistant. The data set is classed as in vivo. The settings on record: application rate 500 g/ha, bean leaf discs, after 6 days. On the procedure: (§5) Solvent: 78.0 parts by weight of acetone • • 1.5 parts by weight of dimethylformamide
as §1, §2
Discs of bean leaves (Phaseolus vulgaris) infested with all stages of the greenhouse red spider mite (Tetranychus urticae) are sprayed with an active compound preparation of the desired concentration.
After 6 days, the efficacy in % is determined. 100% means that all the spider mites have been killed; 0% means that no spider mites have been killed.

In data set [6] the test system is caterpillars of the armyworm (Spodoptera frugiperda). Description: Spodoptera frugiperda - spray test. The class given is in vivo. The settings on record: application rate 500 g/ha, maize leaf discs, after 7 days. As to the method:
as §5, §1, §2
Leaf discs of maize (Zea mays) are sprayed with an active compound preparation of the desired concentration and, after drying, populated with caterpillars of the armyworm (Spodoptera frugiperda).
After 7 days, the efficacy in % is determined. 100% means that all the caterpillars have been killed; 0% means that no caterpillar has been killed.

Data set [7] deals with L1 larvae of the Australian sheep blowfly (Lucilia cuprina). The data set can be described thus: Lucilia cuprina test. The class given is in vivo. The settings on record: application rate 100 ppm, after 2 days. On the procedure:
as §3, §4
About 20 L1 larvae of the Australian sheep blowfly (Lucilia cuprina) are transferred into a test vessel containing minced horsemeat and the active compound preparation of the desired concentration.
After 2 days, the kill in % is determined. 100% means that all the larvae have been killed; 0% means that no larvae have been killed.

Data set [8] has as its system engorged adult female cattle ticks (Boophilus microplus). The data set can be described thus: Boophilus microplus - injection test. The class given is in vivo. The settings on record: application rate 20 μg/animal, assessed after 7 days. On the procedure: as §3
To produce a suitable active compound preparation, 10 mg of active compound are mixed with 0.5 ml of solvent and the concentrate is diluted with solvent to the desired concentration.
1 μl of the active compound solution is injected into the abdomen of 5 engorged adult female cattle ticks (Boophilus microplus). The animals are transferred into dishes and kept in a climate-controlled room.
Efficacy is assessed after 7 days by laying of fertile eggs. Eggs which are not visibly fertile are stored in a climate-controlled cabinet until the larvae hatch after about 42 days. An efficacy of 100% means that none of the ticks has laid any fertile eggs; 0% means that all the eggs are fertile.

Data set [9] in a line: log P (neutral) by HPLC on reversed-phase column (C 18), EEC Directive 79/831 Annex V.A8. The class given is physicochemical. The settings on record: HPLC reversed-phase C 18, 55° C., neutral range pH 7.8, ammonium hydrogencarbonate/acetonitrile.
Data set [10] concerns larvae of the mustard beetle (Phaedon cochleariae). The data set can be described thus: Phaedon cochleariae - spray test. The data set is classed as in vivo. The settings on record: application rate 500 g/ha, Chinese cabbage leaf discs, after 7 days. As to the method: as §5, §1, §2
After 7 days, the efficacy in % is determined. 100% means that all the beetle larvae have been killed; 0% means that no beetle larvae have been killed.

For data set [11], the system named is southern root-knot nematode (Meloidogyne incognita). Description: Meloidogyne incognita test. The data set is classed as in vivo. The settings on record: application rate 20 ppm, lettuce, after 14 days. As to the method:
Solvent: 125.0 parts by weight of acetone
To produce a suitable preparation of active compound, 1 part by weight of active compound is mixed with the stated amount of solvent and the concentrate is diluted with water to the desired concentration.
Vessels are filled with sand, active compound solution, an egg/larvae suspension of the southern root-knot nematode (Meloidogyne incognita) and lettuce seeds. The lettuce seeds germinate and the plants develop. The galls develop on the roots.
After 14 days, the nematicidal efficacy in % is determined by the formation of galls. 100% means that no galls were found; 0% means that the number of galls on the treated plants corresponds to the untreated control.

Regarding `CCS(=O)(=O)c1ccc(-n2cnn(-c3ccccc3F)c2=O)nc1-c1nc2cc(C(F)(F)F)ncc2n1C` [Example I-1], the “efficacy (aphids killed)” value in [1] is on record as 90%. Moreover, the “efficacy (fleas dead or moribund)” value in data set [2] was 100%. Besides, the “efficacy (kill in %)” value was found to be 100% in data set [3], 80% in [4] and 100% in [7]. Moreover, the “efficacy (spider mites killed)” value in [5] worked out at 100%. Moreover, the “efficacy (caterpillars killed)” value in data set [6] is listed as 100%. Moreover, in data set [8], the “efficacy (no laying of fertile eggs)” value amounted to 80%. Also, the “log P (neutral)” value in data set [9] is recorded as “Example I-1: logP (neutral): 3.03 ^1H-NMR(400.0 MHz, d6-DMSO): δ =”. Further, the “efficacy (beetle larvae killed)” value in [10] worked out at 100%.
Consider `CCS(=O)(=O)c1ccc(-n2ncn(-c3ccccc3)c2=O)nc1-c1nc2cc(C(F)(F)F)ncc2n1C` [Example I-15], for which the “nematicidal efficacy (formation of galls)” value (from here on “nematicidal efficacy”) in [11] came to 100%. In addition, in [2], the “efficacy (fleas dead or moribund)” value was 100%. Besides, the “efficacy (kill in %)” value in data set [3] and in [7] was 100% in each case. Also, in [5], the “efficacy (spider mites killed)” value is 70%. Also, the “efficacy (caterpillars killed)” value in data set [6] turned out to be 100%. For the same compound, in data set [8], the “efficacy (no laying of fertile eggs)” value worked out at 80%. The “log P (neutral)” value in data set [9] is reported as “Example I-15: logP (neutral): 2.70 1H-NMR(400.0 MHz, d6-DMSO): □ =”. In data set [10], the “efficacy (beetle larvae killed)” value is recorded as 100%.
With `CCS(=O)(=O)c1ccc(-n2ncn(-c3cccnc3)c2=O)nc1-c1nc2cc(C(F)(F)F)ncc2n1C` [Example I-17], the “efficacy (aphids killed)” value in data set [1] came out at 90%. For the same compound, the “nematicidal efficacy” value in data set [11] worked out at 100%. Further, the “efficacy (kill in %)” value in data set [3] is 95%; in data set [7] it was 100%. For the same compound, the “efficacy (spider mites killed)” value in data set [5] is 90%. The “log P (neutral)” value in data set [9] was “Example I-17: logP (neutral): 2.06 1H-NMR(400.0 MHz, d6-DMSO): □ =”. Further, the “efficacy (beetle larvae killed)” value in data set [10] turned out to be 100%.
On to `CCS(=O)(=O)c1ccc(-n2ncn(-c3ccccc3F)c2=O)nc1-c1nc2cc(C(F)(F)F)ncc2n1C` [Example I-18], for which, in [1], the “efficacy (aphids killed)” value is reported as 90%. Further, the “efficacy (fleas dead or moribund)” value in data set [2] stood at 100%. Moreover, the “efficacy (kill in %)” value stood at 100% in data set [3], 85% in [4] and 100% in data set [7]. In data set [6], the “efficacy (caterpillars killed)” value is 100%. The “efficacy (no laying of fertile eggs)” value in data set [8] amounted to 95%. Moreover, in data set [9], the “log P (neutral)” value is on record as “Example I-18: logP (neutral): 2.73: 1H-NMR(400.0 MHz, d6-DMSO): □ =”. In [10], the “efficacy (beetle larvae killed)” value is 100%.
Turning to `CCS(=O)(=O)c1ccc(-n2ccc(-c3ncccc3Cl)n2)nc1-c1nc2cc(C(F)(F)F)ncc2n1C` [Example I-24], in data set [2], the “efficacy (fleas dead or moribund)” value worked out at 100%. Also, in data set [6], the “efficacy (caterpillars killed)” value was 100%. Also, the “efficacy (kill in %)” value in data set [7] was found to be 100%. In addition, the “log P (neutral)” value in data set [9] is recorded as “Example I-24: logP (neutral): 2.80 1H-NMR(400.0 MHz, d6-DMSO): □ =”. In addition, the “efficacy (beetle larvae killed)” value in data set [10] was found to be 100%.
As for `CCS(=O)(=O)c1ccc(-n2ncn(-c3ccc(Cl)cc3)c2=O)nc1-c1nc2cc(C(F)(F)F)cnc2n1C` [Example I-33, 4-(4-Chlorophenyl)-2-{5-(ethylsulfonyl)-6-[3-methyl-6-(trifluoromethyl)-3H-imidazo[4,5-b]pyridin-2-yl]pyridin-2-yl}-2,4-dihydro-3H-1,2,4-triazol-3-one], in [1], the “efficacy (aphids killed)” value is 90%. Moreover, the “nematicidal efficacy” value in [11] was 100%. The “efficacy (spider mites killed)” value in data set [5] came to 90%. Moreover, in [6], the “efficacy (caterpillars killed)” value is 100%. The compound also showed a chromatographic logP in [9] (reversed-phase HPLC column (C 18)) of 3.52. In [10], the “efficacy (beetle larvae killed)” value stood at 100%.
